This note sets out measurements from ChEMBL document CHEMBL3994625, “Crystal structures, binding interactions, and ADME evaluation of brain penetrant N-substituted indazole-5-carboxamides as subnanomolar, selective monoamine oxidase B and dual MAO-A/B inhibitors” (Eur J Med Chem, 2017).

Series [1] can be described thus: n-octanol-phosphate buffer distribution coefficient, log D of the compound at pH 5.5 after 90 mins by shake-flask method. The format is physicochemical.
A short description of series [2]: Effective permeability of the compound at pH 7.4 at 200 uM after 4 hrs by PAMPA-GI assay. The format is physicochemical. The following applies: read-out: Peff.
Series [3] is described as follows: physchem. The following applies: phosphate buffer, pH 5.5.
Series [4] in a line: n-octanol-phosphate buffer distribution coefficient, log D of the compound at pH 2 after 90 mins by shake-flask method. The format is physicochemical.
The nature of series [5]: physchem. The following applies: phosphate buffer, pH 7.4.
Series [6] can be described thus: Effective permeability of the compound at pH 5.5 at 200 uM after 4 hrs by PAMPA-GI assay. The format is physicochemical. The following applies: read-out: Peff.
Series [7] is described as follows: Effective permeability of the compound at pH 7.4 at 200 uM after 4 hrs by PAMPA-BBB assay. The format is physicochemical. The following applies: read-out: Peff.
Series [8] is described as follows: physchem. The following applies: phosphate buffer, pH 2.
Series [9] is described as follows: Effective permeability of the compound at pH 2 at 200 uM after 4 hrs by PAMPA-GI assay. The format is physicochemical. The following applies: read-out: Peff.
For series [10] the following is noted: buffer, pH 7.4, […], 500 µM.
Series [11] deals with T1, Amine oxidase [flavin-containing] A (Homo sapiens, UniProt P21397).
T1 sequence (P21397 whole entry): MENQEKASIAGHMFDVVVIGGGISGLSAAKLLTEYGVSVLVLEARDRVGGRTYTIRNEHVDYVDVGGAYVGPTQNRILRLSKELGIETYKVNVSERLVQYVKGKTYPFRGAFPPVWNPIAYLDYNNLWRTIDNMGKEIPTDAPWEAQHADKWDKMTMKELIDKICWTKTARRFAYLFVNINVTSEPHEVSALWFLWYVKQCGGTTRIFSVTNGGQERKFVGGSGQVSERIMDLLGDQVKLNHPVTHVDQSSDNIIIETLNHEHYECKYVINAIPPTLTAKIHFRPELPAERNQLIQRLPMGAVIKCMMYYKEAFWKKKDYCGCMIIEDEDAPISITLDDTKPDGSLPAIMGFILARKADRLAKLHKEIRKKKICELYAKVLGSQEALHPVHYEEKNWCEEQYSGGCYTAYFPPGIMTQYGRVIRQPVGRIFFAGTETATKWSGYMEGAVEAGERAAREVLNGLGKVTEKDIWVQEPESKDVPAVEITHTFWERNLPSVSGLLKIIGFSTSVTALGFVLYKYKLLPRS
In words: biochemical.

The conditions of series [12]: buffer, pH 2, […], 500 µM.
For series [13] the following is noted: buffer, pH 5.5, […], 500 µM.
Series [14] is filed under the species Homo sapiens. The series is described as follows: Selectivity index, ratio of IC50 for recombinant human MAOA to IC50 for recombinant human MAOB.
In series [15] the target is T2, Amine oxidase [flavin-containing] B (Homo sapiens, UniProt P27338).
T2 sequence (P27338 whole entry): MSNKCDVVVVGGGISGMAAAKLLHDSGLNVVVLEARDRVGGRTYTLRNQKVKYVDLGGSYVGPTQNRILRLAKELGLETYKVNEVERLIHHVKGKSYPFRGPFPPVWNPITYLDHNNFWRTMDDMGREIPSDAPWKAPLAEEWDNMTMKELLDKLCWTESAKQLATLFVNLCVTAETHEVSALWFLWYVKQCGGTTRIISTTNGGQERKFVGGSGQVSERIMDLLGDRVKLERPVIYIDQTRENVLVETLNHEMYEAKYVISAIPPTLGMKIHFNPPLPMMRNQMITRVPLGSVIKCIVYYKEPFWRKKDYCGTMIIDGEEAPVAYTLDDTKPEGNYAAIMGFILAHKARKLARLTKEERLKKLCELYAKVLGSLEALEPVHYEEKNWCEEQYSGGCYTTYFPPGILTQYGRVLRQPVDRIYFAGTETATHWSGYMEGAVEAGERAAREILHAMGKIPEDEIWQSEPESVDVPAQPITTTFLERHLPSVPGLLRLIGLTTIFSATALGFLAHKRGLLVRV
The series is described as follows: biochemical.
Description: Inhibition of recombinant human MAOB expressed in baculovirus-infected BTI insect cells using p-tyramine as substrate measured for 45 mins in presence of MAOA inhibitor clorgyline by continuous fluorescence-based method

Series [16] addresses T3, Amine oxidase [flavin-containing] A (Rattus norvegicus, UniProt P21396).
T3 sequence (P21396 whole entry): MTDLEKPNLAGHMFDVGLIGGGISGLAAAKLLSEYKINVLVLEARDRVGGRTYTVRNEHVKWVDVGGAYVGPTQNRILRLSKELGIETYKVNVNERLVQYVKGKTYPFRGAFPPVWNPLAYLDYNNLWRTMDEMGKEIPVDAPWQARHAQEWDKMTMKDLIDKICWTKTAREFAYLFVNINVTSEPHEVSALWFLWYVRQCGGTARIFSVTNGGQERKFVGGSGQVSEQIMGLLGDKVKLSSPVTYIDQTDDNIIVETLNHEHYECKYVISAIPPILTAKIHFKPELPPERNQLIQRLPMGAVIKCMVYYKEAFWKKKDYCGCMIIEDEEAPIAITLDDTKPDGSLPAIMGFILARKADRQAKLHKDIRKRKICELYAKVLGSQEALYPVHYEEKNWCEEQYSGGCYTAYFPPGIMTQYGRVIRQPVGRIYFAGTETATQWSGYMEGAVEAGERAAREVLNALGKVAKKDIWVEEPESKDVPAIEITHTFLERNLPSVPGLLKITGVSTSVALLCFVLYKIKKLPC

Series [17] deals with T4, Amine oxidase [flavin-containing] B (Rattus norvegicus, UniProt P19643).
T4 sequence (P19643 whole entry): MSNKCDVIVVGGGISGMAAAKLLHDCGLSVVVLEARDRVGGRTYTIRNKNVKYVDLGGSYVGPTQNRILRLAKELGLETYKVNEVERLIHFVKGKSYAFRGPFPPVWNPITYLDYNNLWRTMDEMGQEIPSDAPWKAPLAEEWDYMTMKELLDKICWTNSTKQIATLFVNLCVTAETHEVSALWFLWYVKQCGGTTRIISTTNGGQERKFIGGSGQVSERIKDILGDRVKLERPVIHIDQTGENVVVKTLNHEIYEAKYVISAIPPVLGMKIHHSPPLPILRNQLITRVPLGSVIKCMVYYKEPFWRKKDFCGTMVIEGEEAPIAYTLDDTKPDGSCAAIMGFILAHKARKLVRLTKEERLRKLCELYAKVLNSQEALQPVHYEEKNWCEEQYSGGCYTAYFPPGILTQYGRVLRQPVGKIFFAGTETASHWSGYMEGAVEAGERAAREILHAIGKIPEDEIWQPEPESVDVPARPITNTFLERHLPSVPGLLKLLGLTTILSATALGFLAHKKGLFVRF
The series is described as follows: Inhibition of MAOB in Sprague-Dawley rat liver mitochondria using p-tyramine as substrate measured for 45 mins in presence of MAOA inhibitor clorgyline by continuous fluorescence-based method.

Series [18] is described as follows: n-octanol-phosphate buffer distribution coefficient, log D of the compound at pH 7.4 after 90 mins by shake-flask method. The format is physicochemical.

Converted amounts (≈) assume the structure as drawn.

Take `Cn1ncc2cc(C(=O)Nc3ccc(F)c(Cl)c3)ccc21`: the logD at […] in [1] was determined as 2.52; in series [4], 2.39. The Papp at 4 h, 200 µM stood at 31.7 ×10⁻⁶ cm/s in [2], 29.5 ×10⁻⁶ cm/s in series [6], 37.6 ×10⁻⁶ cm/s in [7] and 27.2 ×10⁻⁶ cm/s in series [9]. For the same compound, the solubility (kinetic) at […], 500 µM in series [3] was found to be 69.1 µM (≈ 21 µg/mL); in [5] it was 77.4 µM (≈ 23.5 µg/mL); in [8], 57.5 µM (≈ 17.5 µg/mL).
On to `O=C(Nc1ccc(F)c(F)c1)c1ccc2[nH]ncc2c1`, for which the values for the logD at […] in [1] and in series [4] were 1.94 and 2.17, respectively. The Papp at 4 h, 200 µM is at most 0.59 ×10⁻⁶ cm/s in [2], at most 0.59 ×10⁻⁶ cm/s in series [6], 8.15 ×10⁻⁶ cm/s in series [7] and at most 0.59 ×10⁻⁶ cm/s in series [9]. Moreover, the solubility (kinetic) at […], 500 µM in [3] is 62.7 µM (≈ 17.1 µg/mL); in [5], 60.7 µM (≈ 16.6 µg/mL); in series [8] it was 61.1 µM (≈ 16.7 µg/mL). The results for the “log(Kinetic_solubility)” value in series [10], in series [12] and in series [13] were -4.22, -4.21 and -4.2, respectively. The same compound gave a concentration for half-maximal inhibition (IC50) in series [11] of 6.61 nM. Also, in series [14], the Ratio IC50 worked out at 6290.
Regarding `COCCn1ncc2cc(C(=O)Nc3ccc(Cl)c(Cl)c3)ccc21`, the concentration for half-maximal inhibition (IC50) was 1.08 nM in [15], over 10000 nM in series [16], 3.82 nM in [17] and 2870 nM in [11]. Further, the Ki in [15] turned out to be 0.48 nM. Moreover, in series [14], the Ratio IC50 is over 2660.
`O=C(Nc1ccccc1)c1ccc2[nH]ncc2c1`: in series [14], the Ratio IC50 was over 86.
For the compound `Cn1cc2cc(C(=O)Nc3ccc(Cl)c(Cl)c3)ccc2n1`, the logD at […] was 2.54 in [1], 2.49 in [4] and 2.97 in series [18]. In [15], this compound displayed a Ki of 0.64 nM. Besides, the Papp at 4 h, 200 µM is 17.6 ×10⁻⁶ cm/s in [2], 16.1 ×10⁻⁶ cm/s in series [6], 29 ×10⁻⁶ cm/s in series [7] and 14.5 ×10⁻⁶ cm/s in series [9]. Also, the figures for the kinetic solubility at […], 500 µM in series [3], in series [5] and in series [8] were 50 µM (≈ 16 µg/mL), 55.9 µM (≈ 17.9 µg/mL) and 57.5 µM (≈ 18.4 µg/mL), respectively. The entries for the “log(Kinetic_solubility)” value in series [10], in series [12] and in [13] were -4.25, -4.24 and -4.3, respectively.
On to `O=C(Nc1ccc(Cl)c(Cl)c1)c1ccc2[nH]ncc2c1`, for which the Ratio IC50 in [14] is 17100.
Turning to `Cn1ncc2cc(C(=O)Nc3ccc(Cl)c(Cl)c3)ccc21`, the Papp at 4 h, 200 µM in series [2] came out at 18.6 ×10⁻⁶ cm/s; in series [6], 16.8 ×10⁻⁶ cm/s; in series [7] it was 22.3 ×10⁻⁶ cm/s; in [9], 18.3 ×10⁻⁶ cm/s. Besides, the solubility (kinetic) at […], 500 µM in series [3] turned out to be 3.04 µM (≈ 0.973 µg/mL); in series [5], 3.51 µM (≈ 1.12 µg/mL); in series [8], 4.07 µM (≈ 1.3 µg/mL). For the same compound, the “log(Kinetic_solubility)” value in [10] is listed as -5.45; in [12], -5.39; in [13], -5.52.
On to `Cn1cc2cc(C(=O)Nc3ccc(F)c(F)c3)ccc2n1`, for which, in series [14], the Ratio IC50 amounted to 20.
On the same count and under the same terms, in the case of `Cn1ncc2cc(C(=O)Nc3ccc(F)c(F)c3)ccc21` it was 6580.
Turning to `Cn1cc2cc(C(=O)Nc3ccc(F)c(Cl)c3)ccc2n1`, the logD at […] was found to be 2.55 in series [1], 3.24 in [4] and 2.64 in series [18]. This compound also gave a Ki in series [15] of 3.57 nM. In addition, the Papp at 4 h, 200 µM in series [2] worked out at 9.35 ×10⁻⁶ cm/s; in series [6], 9.11 ×10⁻⁶ cm/s; in series [7], 17.2 ×10⁻⁶ cm/s; in series [9] it was 8.16 ×10⁻⁶ cm/s. Besides, the solubility (kinetic) at […], 500 µM in series [3] worked out at 421 µM (≈ 128 µg/mL); in series [5] it was 441 µM (≈ 134 µg/mL); in [8], 439 µM (≈ 133 µg/mL). In addition, the “log(Kinetic_solubility)” value was -3.36 in [10], -3.36 in series [12] and -3.38 in [13]. The IC50 in [11] was found to be 8.13 nM. Further, the Ratio IC50 in series [14] was found to be 70.
For the compound `COCCc1ccc(OCC(O)CNC(C)C)cc1` (stereo unspecified) [METOPROLOL], the log distribution coefficient (logD) at […] in [1] is -0.76; in [4], -2.46; in series [18], -0.37.
